{"source": "paper PMC6689975", "about": "“Novel Cell Wall Antifungals Reveal a Special Synergistic Activity in pbr1 Mutants Resistant to the Glucan Synthesis Antifungals Papulacandins and Echinocandins” (Frontiers in Microbiology, 2019)", "test_system": "Candida albicans C. a.^g (Table 6)", "assay": "microbe, parasite or virus in culture", "set-up": "species or system yeast; micro tube dilution MIC in YES (± 1.2 M sorbitol), complete growth inhibition by turbidity", "conditions": "48 h, read-out: MIC", "how_it_was_run": "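Broth microdilution in YEPD, YES or these media with 1.2 M sorbitol; early log-phase cells at 2 X 10^6 cells/ml exposed to compound (up to 200 μg/ml, 2% DMSO final) at 30°C. Turbidity read at 24 and 48 h; MIC = lowest concentration giving complete inhibition (clear medium), ≥3 independent experiments.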"}
{"smiles": "CC[C@H](C)C[C@H](C)CCCCCCCCC(=O)N[C@H]1C[C@@H](O)[C@@H](NCCN)NC(=O)[C@@H]2[C@@H](O)CCN2C(=O)[C@H]([C@H](O)CCN)NC(=O)[C@H]([C@H](O)[C@@H](O)c2ccc(O)cc2)NC(=O)[C@@H]2C[C@@H](O)CN2C(=O)[C@H]([C@@H](C)O)NC1=O", "note": "[caspofungin]", "values": [{"measurement": "MIC", "result": 50, "unit": "µg/mL"}]}
